Read-outs that look alike come from different tables or passages of the source.
Biological target: human α7 nAChR (Homo sapiens, UniProt P36544)
Test: Automated patch-clamp electrophysiology functional assay (Assay A)
Type: cell-based
Conditions: IonFlux HT whole-cell population patch, HEK cell line stably expressing human RIC-3 and human α7, 40 μM acetylcholine
Summary of the method: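 Whole-cell population patch clamp at room temperature on HEK cells stably expressing human α7 and RIC-3, held at −60 mV. Compounds tested at three ascending concentrations per recording, with or without 40 μM acetylcholine; currents quantified relative to an initial 1 s 40 μM acetylcholine response; EC50 from concentration series.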

Chain of human α7 nAChR (P36544 23-502): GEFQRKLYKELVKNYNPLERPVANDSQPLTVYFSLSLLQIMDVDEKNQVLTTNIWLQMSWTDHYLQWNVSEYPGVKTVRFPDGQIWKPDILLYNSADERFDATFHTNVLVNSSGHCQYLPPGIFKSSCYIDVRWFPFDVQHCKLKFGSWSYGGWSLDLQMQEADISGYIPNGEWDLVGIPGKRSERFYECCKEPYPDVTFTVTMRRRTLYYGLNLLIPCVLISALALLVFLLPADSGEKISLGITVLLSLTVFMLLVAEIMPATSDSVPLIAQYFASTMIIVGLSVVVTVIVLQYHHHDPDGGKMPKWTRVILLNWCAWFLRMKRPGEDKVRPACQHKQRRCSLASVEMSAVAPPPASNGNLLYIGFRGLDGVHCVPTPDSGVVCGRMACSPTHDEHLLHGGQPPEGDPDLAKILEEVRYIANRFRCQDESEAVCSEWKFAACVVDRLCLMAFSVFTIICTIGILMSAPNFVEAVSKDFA

| EC50 (read-out: α7 nAChR Potency) [nM] | EC50 (read-out: α7 nAChR EC50) [nM] | Structure (SMILES) |
| --- | --- | --- |
| 500 to 5000 | – | CC1(C)[C@@H](c2ccc(S(N)(=O)=O)nc2)[C@@H]1c1nc(C2CC(F)(F)C2)no1 [Example B8, 5-{(1S,3S)-3-[3-(3,3-Difluorocyclobutyl)-1,2,4-oxadiazol-5-yl]-2,2-dimethylcyclopropyl}pyridine-2-sulfonamide] |
| 500 to 5000 | 620 | CC1(C)[C@@H](c2ccc(S(N)(=O)=O)nc2)[C@@H]1c1nc(C2CCC2)no1 [Example B9, 5-[(1S,3S)-3-(3-Cyclobutyl-1,2,4-oxadiazol-5-yl)-2,2-dimethylcyclopropyl]pyridine-2-sulfonamide] |
| 500 to 5000 | 1600 | CC1(C)[C@@H](c2ccc(S(N)(=O)=O)nc2)[C@@H]1c1nc(CC2CC2)no1 [Example B10, 5-{(1S,3S)-3-[3-(Cyclopropylmethyl)-1,2,4-oxadiazol-5-yl]-2,2-dimethylcyclopropyl}pyridine-2-sulfonamide] |
| 500 to 5000 | – | CC1(C)[C@@H](c2ccc(S(N)(=O)=O)nc2)[C@@H]1c1nc(C2CC2)no1 [Example B11, 5-[(1S,3S)-3-(3-Cyclopropyl-1,2,4-oxadiazol-5-yl)-2,2-dimethylcyclopropyl]pyridine-2-sulfonamide] |
| 500 to 5000 | 1600 | CC(C)(C)c1noc([C@H]2[C@H](c3ccc(S(N)(=O)=O)nc3)C2(C)C)n1 [Example B12, 5-[(1S,3S)-3-(3-tert-Butyl-1,2,4-oxadiazol-5-yl)-2,2-dimethylcyclopropyl]pyridine-2-sulfonamide] |
| 500 to 5000 | – | CC(C)c1noc([C@H]2[C@H](c3ccc(S(N)(=O)=O)nc3)C2(C)C)n1 [Example B13, 5-{(1S,3S)-2,2-Dimethyl-3-[3-(propan-2-yl)-1,2,4-oxadiazol-5-yl]cyclopropyl}pyridine-2-sulfonamide] |
| 500 to 5000 | 590 | CC1(C)[C@@H](c2ccc(S(N)(=O)=O)nc2)[C@@H]1c1ncc(C2CCCC2)o1 [Example B14, 5-[(1S,3S)-3-(5-Cyclopentyl-1,3-oxazol-2-yl)-2,2-dimethylcyclopropyl]pyridine-2-sulfonamide] |
| 500 to 5000 | 1500 | CC1(C)[C@@H](c2ccc(S(N)(=O)=O)nc2)[C@@H]1c1ncc(C2CCCC2)s1 [Example B16, 5-[(1S,3S)-3-(5-Cyclopentyl-1,3-thiazol-2-yl)-2,2-dimethylcyclopropyl]pyridine-2-sulfonamide] |
| 500 to 5000 | 1700 | CC1(C)[C@H](c2nc(-c3ccccc3)no2)[C@H]1c1ncc(S(N)(=O)=O)s1 [Example D9, 2-[(1R,3R)-2,2-Dimethyl-3-(3-phenyl-1,2,4-oxadiazol-5-yl)cyclopropyl]-1,3-thiazole-5-sulfonamide] |
| 500 to 5000 | 4000 | CC1(C)[C@H](c2ccc(S(N)(=O)=O)cn2)[C@H]1c1nc(-c2cccc(F)c2)no1 [Example E1, 6-{(1R,3R)-3-[3-(3-Fluorophenyl)-1,2,4-oxadiazol-5-yl]-2,2-dimethylcyclopropyl}pyridine-3-sulfonamide] |
| 500 to 5000 | 3200 | CC1(C)[C@H](c2ccc(S(N)(=O)=O)cn2)[C@H]1c1nc(C2CCCC2)no1 [Example E2, 6-[(1R,3R)-3-(3-Cyclopentyl-1,2,4-oxadiazol-5-yl)-2,2-dimethylcyclopropyl]pyridine-3-sulfonamide] |
| 500 to 5000 | – | CC1(C)[C@H](c2ccc(S(N)(=O)=O)cn2)[C@H]1c1nc(-c2ccccc2)no1 [Example E3, 6-[(1R,3R)-2,2-Dimethyl-3-(3-phenyl-1,2,4-oxadiazol-5-yl)cyclopropyl]pyridine-3-sulfonamide] |
| 5000 to 50000 | 5400 | COc1ccc(Cl)cc1-c1noc([C@@H]2[C@@H](c3ccc(S(N)(=O)=O)cn3)C2(C)C)n1 [Example E4, 6-{(1R,3R)-3-[3-(5-Chloro-2-methoxyphenyl)-1,2,4-oxadiazol-5-yl]-2,2-dimethylcyclopropyl}pyridine-3-sulfonamide] |
| 500 to 5000 | 1300 | CC1(C)[C@H](c2ccc(S(N)(=O)=O)cn2)[C@H]1c1nc(-c2ccc(F)cc2F)no1 [Example E5, 6-{(1R,3R)-3-[3-(2,4-Difluorophenyl)-1,2,4-oxadiazol-5-yl]-2,2-dimethylcyclopropyl}pyridine-3-sulfonamide] |
| 500 to 5000 | – | CC1(C)[C@H](c2ccc(S(N)(=O)=O)cn2)[C@H]1c1nc(-c2cccc(C(F)(F)F)c2)no1 [Example E6, 6-[(1R,3R)-2,2-Dimethyl-3-{3-[3-(trifluoromethyl)phenyl]-1,2,4-oxadiazol-5-yl}cyclopropyl]pyridine-3-sulfonamide] |
| 500 to 5000 | – | CC1(C)[C@H](c2ccc(S(N)(=O)=O)cn2)[C@H]1c1nc(C2CCCCC2)no1 [Example E7, 6-[(1R,3R)-3-(3-Cyclohexyl-1,2,4-oxadiazol-5-yl)-2,2-dimethylcyclopropyl]pyridine-3-sulfonamide] |
| 500 to 5000 | 1100 | CC1(C)[C@@H](c2ccc(S(N)(=O)=O)cn2)[C@@H]1c1nc(-c2cccc(F)c2)no1 [Example F1, 6-{(1S,3S)-3-[3-(3-Fluorophenyl)-1,2,4-oxadiazol-5-yl]-2,2-dimethylcyclopropyl}pyridine-3-sulfonamide] |
| 500 to 5000 | 3300 | CC1(C)[C@@H](c2ccc(S(N)(=O)=O)cn2)[C@@H]1c1nc(-c2cncc(C(F)(F)F)c2)no1 [Example F2, 6-[(1S,3S)-2,2-Dimethyl-3-{3-[5-(trifluoromethyl)pyridin-3-yl]-1,2,4-oxadiazol-5-yl}cyclopropyl]pyridine-3-sulfonamide] |
| 100 to 500 | 340 | CC1(C)[C@@H](c2ccc(S(N)(=O)=O)cn2)[C@@H]1c1nc(C2CCCC2)no1 [Example F3, 6-[(1S,3S)-3-(3-Cyclopentyl-1,2,4-oxadiazol-5-yl)-2,2-dimethylcyclopropyl]pyridine-3-sulfonamide] |
| 500 to 5000 | – | COc1ccc(Cl)cc1-c1noc([C@H]2[C@H](c3ccc(S(N)(=O)=O)cn3)C2(C)C)n1 [Example F4, 6-{(1S,3S)-3-[3-(5-Chloro-2-methoxyphenyl)-1,2,4-oxadiazol-5-yl]-2,2-dimethylcyclopropyl}pyridine-3-sulfonamide] |
| 500 to 5000 | 1700 | CC1(C)[C@@H](c2ccc(S(N)(=O)=O)cn2)[C@@H]1c1nc(-c2ccc(F)cc2F)no1 [Example F5, 6-{(1S,3S)-3-[3-(2,4-Difluorophenyl)-1,2,4-oxadiazol-5-yl]-2,2-dimethylcyclopropyl}pyridine-3-sulfonamide] |
| 500 to 5000 | 2700 | CC1(C)[C@@H](c2ccc(S(N)(=O)=O)cn2)[C@@H]1c1nc(-c2cccc(C(F)(F)F)c2)no1 [Example F6, 6-[(1S,3S)-2,2-Dimethyl-3-{3-[3-(trifluoromethyl)phenyl]-1,2,4-oxadiazol-5-yl}cyclopropyl]pyridine-3-sulfonamide] |
| 500 to 5000 | 1500 | CC1(C)[C@@H](c2ccc(S(N)(=O)=O)cn2)[C@@H]1c1nc(CC2CC2)no1 [Example F7, 6-{(1S,3S)-3-[3-(Cyclopropylmethyl)-1,2,4-oxadiazol-5-yl]-2,2-dimethylcyclopropyl}pyridine-3-sulfonamide] |
| 500 to 5000 | 1400 | CC1(C)[C@@H](c2ccc(S(N)(=O)=O)cn2)[C@@H]1c1nc(C2CC2)no1 [Example F8, 6-[(1S,3S)-3-(3-Cyclopropyl-1,2,4-oxadiazol-5-yl)-2,2-dimethylcyclopropyl]pyridine-3-sulfonamide] |
| 500 to 5000 | – | CC(C)(C)c1noc([C@H]2[C@H](c3ccc(S(N)(=O)=O)cn3)C2(C)C)n1 [Example F9, 6-[(1S,3S)-3-(3-tert-Butyl-1,2,4-oxadiazol-5-yl)-2,2-dimethylcyclopropyl]pyridine-3-sulfonamide] |
| 500 to 5000 | 1900 | CC1(C)[C@@H](c2ccc(S(N)(=O)=O)cn2)[C@@H]1c1nc(C2CC(F)(F)C2)no1 [Example F12, 6-{(1S,3S)-3-[3-(3,3-Difluorocyclobutyl)-1,2,4-oxadiazol-5-yl]-2,2-dimethylcyclopropyl}pyridine-3-sulfonamide] |
| 500 to 5000 | – | CC1(C)[C@@H](c2ccc(S(N)(=O)=O)cn2)[C@@H]1c1nc(C2CCC2)no1 [Example F13, 6-[(1S,3S)-3-(3-Cyclobutyl-1,2,4-oxadiazol-5-yl)-2,2-dimethylcyclopropyl]pyridine-3-sulfonamide] |
| 500 to 5000 | 1600 | CC(C)c1noc([C@H]2[C@H](c3ccc(S(N)(=O)=O)cn3)C2(C)C)n1 [Example F14, 6-{(1S,3S)-2,2-Dimethyl-3-[3-(propan-2-yl)-1,2,4-oxadiazol-5-yl]cyclopropyl}pyridine-3-sulfonamide] |

| Structure (SMILES) | EC50 (read-out: α7 nAChR Potency) [nM] | EC50 (read-out: α7 nAChR EC50) [nM] |
| --- | --- | --- |
| CC1(C)[C@@H](c2ccc(S(N)(=O)=O)cn2)[C@@H]1c1nc(-c2ccccc2)no1 [Example F10, 6-[(1S,3S)-2,2-Dimethyl-3-(3-phenyl-1,2,4-oxadiazol-5-yl)cyclopropyl]pyridine-3-sulfonamide] | 500 to 5000 | 1100 |
| CC1(C)[C@@H](c2ccc(S(N)(=O)=O)cn2)[C@@H]1c1nc(-c2cncc(F)c2)no1 [Example F11, 6-{(1S,3S)-3-[3-(5-Fluoropyridin-3-yl)-1,2,4-oxadiazol-5-yl]-2,2-dimethylcyclopropyl}pyridine-3-sulfonamide] | 500 to 5000 | 3400 |
